# Assay results published in patent publication US11459323B2, “Monocyclic β-lactam compound for treating bacterial infection” (MEDSHINE DISCOVERY INC., priority 2018, dated 2022).
# Read-outs that look alike come from different tables or passages of the source.
# Experiments:
# Test in all cases: MIC on clinically isolated bacteria
# Format in all cases: cell-based
# [1] = system: Acinetobacter baumannii C281; conditions: Acinetobacter baumannii C281; read-out: Minimum Inhibitory Concentration (MIC)
# Text: (§1) Twenty-five strains of clinically isolated Acinetobacter baumannii and twenty-seven strains of Pseudomonas aeruginosa were respectively selected and used to determine the minimum inhibitory concentration (MIC) of the compounds by micro-liquid dilution method according to the Institute of Clinical and Laboratory Standard (CLSI) requirements.
# [2] = system: Pseudomonas aeruginosa C754; conditions: read-out: MIC
# Text: as §1
# [3] = system: Acinetobacter baumannii C402; conditions: Acinetobacter baumannii C402; read-out: Minimum Inhibitory Concentration (MIC)
# Text: as §1
# [4] = system: Pseudomonas aeruginosa C763; conditions: read-out: MIC
# Text: as §1
# Aeruginosa ATCC27853 = conditions: Pseudomonas aeruginosa; Aeruginosa ATCC27853; read-out: MIC
# Text: as §1
# [5] = system: Acinetobacter baumannii C319; conditions: Acinetobacter baumannii C319; read-out: Minimum Inhibitory Concentration (MIC)
# Text: as §1
# [6] = system: Pseudomonas aeruginosa C755; conditions: read-out: MIC
# Text: as §1
# [7] = system: Acinetobacter baumannii C408; conditions: Acinetobacter baumannii C408; read-out: Minimum Inhibitory Concentration (MIC)
# Text: as §1
# [8] = system: Pseudomonas aeruginosa M1; conditions: read-out: MIC
# Text: as §1
# [9] = system: Acinetobacter baumannii C394; conditions: Acinetobacter baumannii C394; read-out: Minimum Inhibitory Concentration (MIC)
# Text: as §1
# [10] = system: Pseudomonas aeruginosa C762
# Text: as §1
# [11] = system: Pseudomonas aeruginosa C761; conditions: read-out: MIC
# Text: as §1
# [12] = system: Acinetobacter baumannii C251; conditions: Acinetobacter baumannii C251; read-out: Minimum Inhibitory Concentration (MIC)
# Text: as §1
# [13] = system: Acinetobacter baumannii C312; conditions: Acinetobacter baumannii C312; read-out: Minimum Inhibitory Concentration (MIC)
# Text: as §1
# [14] = system: Acinetobacter baumannii C279; conditions: Acinetobacter baumannii C279; read-out: Minimum Inhibitory Concentration (MIC)
# Text: as §1
# [15] = system: Pseudomonas aeruginosa W21; conditions: read-out: MIC
# Text: as §1
# [16] = system: Pseudomonas aeruginosa M4; conditions: read-out: MIC
# Text: as §1
# [17] = system: Pseudomonas aeruginosa W23; conditions: read-out: MIC
# Text: as §1
# [18] = system: Acinetobacter baumannii C333; conditions: Acinetobacter baumannii C333; read-out: Minimum Inhibitory Concentration (MIC)
# Text: as §1
# [19] = system: Pseudomonas aeruginosa W28; conditions: read-out: MIC
# Text: as §1
# [20] = system: Acinetobacter baumannii C332; conditions: Acinetobacter baumannii C332; read-out: Minimum Inhibitory Concentration (MIC)
# Text: as §1
# [21] = system: Pseudomonas aeruginosa W29; conditions: read-out: MIC
# Text: as §1
# [22] = system: Acinetobacter baumannii C181; conditions: Acinetobacter baumannii C181; read-out: Minimum Inhibitory Concentration (MIC)
# Text: as §1
# [23] = system: Pseudomonas aeruginosa W13; conditions: read-out: MIC
# Text: as §1
# [24] = system: Pseudomonas aeruginosa W46; conditions: read-out: MIC
# Text: as §1
# [25] = system: Pseudomonas aeruginosa C745; conditions: read-out: MIC
# Text: as §1
# [26] = system: Acinetobacter baumannii C395; conditions: Acinetobacter baumannii C395; read-out: Minimum Inhibitory Concentration (MIC)
# Text: as §1
# [27] = system: Acinetobacter baumannii C328; conditions: Acinetobacter baumannii C328; read-out: Minimum Inhibitory Concentration (MIC)
# Text: as §1
# [28] = system: Pseudomonas aeruginosa W47; conditions: read-out: MIC
# Text: as §1
# [29] = system: Acinetobacter baumannii C283; conditions: Acinetobacter baumannii C283; read-out: Minimum Inhibitory Concentration (MIC)
# Text: as §1
# [30] = system: Pseudomonas aeruginosa W20; conditions: read-out: MIC
# Text: as §1
# [31] = system: Pseudomonas aeruginosa W4; conditions: read-out: MIC
# Text: as §1
# [32] = system: Acinetobacter baumannii C241; conditions: Acinetobacter baumannii C241; read-out: Minimum Inhibitory Concentration (MIC)
# Text: as §1
# [33] = system: Acinetobacter baumannii C313; conditions: Acinetobacter baumannii C313; read-out: Minimum Inhibitory Concentration (MIC)
# Text: as §1
# [34] = system: Acinetobacter baumannii C315; conditions: Acinetobacter baumannii C315; read-out: Minimum Inhibitory Concentration (MIC)
# Text: as §1
# [35] = system: Pseudomonas aeruginosa W42; conditions: read-out: MIC
# Text: as §1
# [36] = system: Pseudomonas aeruginosa W27; conditions: read-out: MIC
# Text: as §1
# [37] = system: Pseudomonas aeruginosa W9; conditions: read-out: MIC
# Text: as §1
# [38] = system: Acinetobacter baumannii C390; conditions: Acinetobacter baumannii C390; read-out: Minimum Inhibitory Concentration (MIC)
# Text: as §1
# [39] = system: Pseudomonas aeruginosa W32; conditions: read-out: MIC
# Text: as §1
# [40] = system: Acinetobacter baumannii C427; conditions: Acinetobacter baumannii C427; read-out: Minimum Inhibitory Concentration (MIC)
# Text: as §1
compound,measurement,setting,value
CC1(C)[C@H](NC(=O)/C(=N\O[C@@H](COc2ccc3c(c2)CN(C(=N)NCCCCN)C3)C(=O)O)c2csc(N)n2)C(=O)N1OS(=O)(=O)O [Compound 36],MIC,[1],2 µg/mL
same,MIC,[2],0.25 µg/mL
same,MIC,[3],2 µg/mL
same,MIC,[4],4 µg/mL
same,MIC,Aeruginosa ATCC27853,0.25 µg/mL
same,MIC,[5],2 µg/mL
same,MIC,[6],0.25 µg/mL
same,MIC,[7],2 µg/mL
same,MIC,[8],0.5 µg/mL
same,MIC,[9],2 µg/mL
same,MIC,[10]; read-out: MIC,8 µg/mL
same,MIC,[11],0.25 µg/mL
same,MIC,[12],16 µg/mL
same,MIC,[13],2 µg/mL
same,MIC,[14],2 µg/mL
same,MIC,[15],0.25 µg/mL
same,MIC,[16],1 µg/mL
same,MIC,[17],0.25 µg/mL
same,MIC,[18],2 µg/mL
same,MIC,[19],4 µg/mL
same,MIC,[20],2 µg/mL
same,MIC,[21],0.5 µg/mL
same,MIC,[22],2 µg/mL
same,MIC,[23],0.25 µg/mL
same,MIC,[24],0.25 µg/mL
same,MIC,[25],8 µg/mL
same,MIC,[26],2 µg/mL
same,MIC,[27],2 µg/mL
same,MIC,[28],0.5 µg/mL
same,MIC,[29],2 µg/mL
same,MIC,[30],0.5 µg/mL
same,MIC,[31],1 µg/mL
same,MIC,[32],2 µg/mL
same,MIC,[33],2 µg/mL
same,MIC,[34],2 µg/mL
same,MIC,[35],0.25 µg/mL
same,MIC,[36],0.5 µg/mL
same,MIC,[37],0.5 µg/mL
same,MIC,[38],2 µg/mL
same,MIC,[39],1 µg/mL
same,MIC,[40],2 µg/mL
"C[C@H]1[C@H](NC(=O)/C(=N\OC(C)(C)C(=O)O)c2csc(N)n2)C(=O)N1S(=O)(=O)O [Aztreonam, reference compound]",MIC,[1],64 µg/mL
same,MIC,[2],4 µg/mL
same,MIC,[3],32 µg/mL
same,MIC,[4],32 µg/mL
same,MIC,Aeruginosa ATCC27853,2 µg/mL
same,MIC,[5],64 µg/mL
same,MIC,[6],4 µg/mL
same,MIC,[7],32 µg/mL
same,MIC,[8],8 µg/mL
same,MIC,[9],64 µg/mL
same,MIC,[10],128 µg/mL
same,MIC,[11],8 µg/mL
same,MIC,[12],32 µg/mL
same,MIC,[13],64 µg/mL
same,MIC,[14],64 µg/mL
same,MIC,[15],16 µg/mL
same,MIC,[16],< 0.25 µg/mL
same,MIC,[17],16 µg/mL
same,MIC,[18],64 µg/mL
same,MIC,[19],32 µg/mL
same,MIC,[20],64 µg/mL
same,MIC,[21],32 µg/mL
same,MIC,[22],64 µg/mL
same,MIC,[23],16 µg/mL
same,MIC,[24],16 µg/mL
same,MIC,[25],32 µg/mL
same,MIC,[26],32 µg/mL
same,MIC,[27],64 µg/mL
same,MIC,[28],16 µg/mL
same,MIC,[29],64 µg/mL
same,MIC,[30],32 µg/mL
same,MIC,[31],4 µg/mL
same,MIC,[32],128 µg/mL
same,MIC,[33],64 µg/mL
same,MIC,[34],64 µg/mL
same,MIC,[35],16 µg/mL
same,MIC,[36],32 µg/mL
same,MIC,[37],32 µg/mL
same,MIC,[38],64 µg/mL
same,MIC,[39],32 µg/mL
same,MIC,[40],64 µg/mL
CC1(C)[C@H](NC(=O)/C(=N\O[C@@H](COc2ccc3c(c2)CN(C(=N)N(CCN)CCN)C3)C(=O)O)c2csc(N)n2)C(=O)N1OS(=O)(=O)O [Compound 45],MIC,[1],16 µg/mL
same,MIC,[2],4 µg/mL
same,MIC,[3],8 µg/mL
same,MIC,[4],> 16 µg/mL
same,MIC,Aeruginosa ATCC27853,2 µg/mL
same,MIC,[5],16 µg/mL
same,MIC,[6],4 µg/mL
same,MIC,[7],8 µg/mL
same,MIC,[8],4 µg/mL
same,MIC,[9],16 µg/mL
same,MIC,[10]; read-out: MIC,> 16 µg/mL
same,MIC,[11],8 µg/mL
same,MIC,[12],16 µg/mL
same,MIC,[13],16 µg/mL
same,MIC,[14],16 µg/mL
same,MIC,[15],4 µg/mL
same,MIC,[16],0.25 µg/mL
same,MIC,[17],4 µg/mL
same,MIC,[18],16 µg/mL
same,MIC,[19],> 16 µg/mL
same,MIC,[20],16 µg/mL
same,MIC,[21],16 µg/mL
same,MIC,[22],> 16 µg/mL
same,MIC,[23],4 µg/mL
same,MIC,[24],8 µg/mL
same,MIC,[25],> 16 µg/mL
same,MIC,[26],8 µg/mL
same,MIC,[27],16 µg/mL
same,MIC,[28],16 µg/mL
same,MIC,[29],16 µg/mL
same,MIC,[30],16 µg/mL
same,MIC,[31],2 µg/mL
same,MIC,[32],> 16 µg/mL
same,MIC,[33],16 µg/mL
same,MIC,[34],16 µg/mL
same,MIC,[35],4 µg/mL
same,MIC,[36],16 µg/mL
same,MIC,[37],16 µg/mL
same,MIC,[38],16 µg/mL
same,MIC,[39],16 µg/mL
same,MIC,[40],16 µg/mL
